Results on 1 compound are retold here after patent US20190167676A1, “METHODS FOR IMPROVING RESISTANCE TO SKELETAL MUSCLE FATIGUE” (Cytokinetics, Inc., priority 2012, published 2019).

The experiment deals with healthy female rats. The experiment can be described thus: Cage grid hang time. It counts as in vivo, rat. On the procedure: Static fatigue in conscious rats was assessed by measuring the length of time that healthy female rats would hang upside down from a cage grid. Rats were trained to hang upside-down from a cage grid and the time to drop to soft padding below was recorded. Baseline hang-times were recorded for each animal (n=24) for a two week period of time. The rats were then treated with Compound A (200 ppm) in chow for two weeks while hang times were monitored daily. Finally, the rats were withdrawn from Compound A in their chow for five days while hang times were recorded daily.

[1] abbreviates: 200 ppm in chow, average final three days of two week dosing.
Setting [2] is: after withdrawal, average final three days of five day period.

Regarding `C#Cc1cnc2nc(O)n(C(CC)CC)c2n1` [Compound A, 6-ethynyl-1-(pentan-3-yl)-1H-imidazo[4,5-b]pyrazin-2-ol], under setting [1], the grid hang time is 899 ± 157 s and the “grid hang time compared to baseline” value came to 160±18%. Besides, under setting [2], the grid hang time turned out to be 698 ± 122 s and the “grid hang time, normalized performance” value is given as 124±12%.
